Laboratory results published in PubChem BioAssay AID1552 (Sanford-Burnham Center for Chemical Genomics, 2009).
Calls of active or inactive are those of the source. No rule for the calls is given here.

The compounds below were run against Ubiquitin-conjugating enzyme E2 N (Homo sapiens) (UniProt P61088) (assay: UBE2N binders by NMR, biophysical, purified protein (AID 1552)). Conditions: NMR binding to purified UBE2N.
Sequence of Ubiquitin-conjugating enzyme E2 N (Homo sapiens) (P61088 whole entry, looked up): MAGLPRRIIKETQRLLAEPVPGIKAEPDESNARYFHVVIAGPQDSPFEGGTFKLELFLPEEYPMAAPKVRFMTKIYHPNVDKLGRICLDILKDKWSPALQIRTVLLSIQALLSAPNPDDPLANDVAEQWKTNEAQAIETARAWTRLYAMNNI

Compound	Kd
CC(=O)O[C@H]1C(=O)[C@@]2(C)C([C@H](OC(=O)c3ccccc3)[C@]3(O)C[C@H](OC(=O)[C@H](O)[C@@H](NC(=O)c4ccccc4)c4ccccc4)C(C)=C1C3(C)C)[C@]1(OC(C)=O)CO[C@@H]1C[C@@H]2O (stereo partly specified)	> 4 mM (inactive)
CSc1cccc(NC(=O)c2c(Cl)cnn2C)c1	> 4 mM (inactive)
CCC[C@@H]1CCCCN1	> 4 mM (inactive)
CN1CCN(C(=O)c2cc(-c3ccccc3)on2)CC1	> 4 mM (inactive)
Nc1ccccc1-n1cccn1	> 4 mM (inactive)
O=C(O)C1(O)C[C@@H](O)C(O)[C@H](O)C1 (stereo partly specified)	> 4 mM (inactive)
Cc1oc(-c2ccccc2)cc1CO	> 4 mM (inactive)
C=CCc1ccc(OC(=O)c2ccccc2)c(OC)c1	> 4 mM (inactive)
CN(C)c1ccc2c(=O)[nH][nH]c(=O)c2c1	> 4 mM (inactive)
Cc1n[nH]c(=S)n(/N=C/c2cccs2)c1=O	> 4 mM (inactive)
CC(=O)O[C@H]1CC[C@]2(C)C3CC[C@@]4(C)C(CC5O[C@@]6(CCC(C)CO6)[C@@H](C)C54)C3CC[C@@H]2C1 (stereo partly specified)	> 4 mM (inactive)
Cc1nc(-c2ccccc2)sc1CO	> 4 mM (inactive)
CC(=O)c1c(C)nc(C)nc1NC(=O)C(C)C	> 4 mM (inactive)
COc1c(CC=C(C)C)c2c(c3oc(=O)c(-c4ccc(O)cc4)c(O)c13)C=CC(C)(C)O2	> 4 mM (inactive)
O=C1CCC(=O)N1c1ccc(O)cc1	> 4 mM (inactive)
COc1ccccc1NC(C)=O	> 4 mM (inactive)
CC(=O)Oc1ccccc1N1C(=O)C=CC1=O	> 4 mM (inactive)
CNC(=S)N1CCN(C(=O)c2ccco2)CC1	> 4 mM (inactive)
O=C1CSC(=Nc2cc(Cl)ccc2Cl)N1	> 4 mM (inactive)
Cc1nc(SCC#N)c2c(C)c(C)sc2n1	> 4 mM (inactive)
COc1ccc(C(=O)CC(=O)O)c2c1C=CC(C)(C)O2	> 4 mM (inactive)

Compound	Kd
COc1ccc(-c2coc3cc(O)ccc3c2=O)c(O)c1O	> 4 mM (inactive)
CC(=O)c1sc(NC(=O)C=C(C)C)nc1C	> 4 mM (inactive)
O=C(O)CCc1nc2ccccc2[nH]c1=O	> 4 mM (inactive)
CC(=O)O[C@H]1CC[C@@]2(C)C(CC[C@]3(C)C2C(=O)C=C2C4[C@@H](C)[C@H](C)CC[C@]4(C(=O)O)CC[C@]23C)C1(C)C (stereo partly specified)	> 4 mM (inactive)
Cc1c(C(=O)Nc2ccccn2)oc2ccccc12	> 4 mM (inactive)
O=S1(=O)CCC(Nc2ccccc2)C1 (stereo unspecified)	> 4 mM (inactive)
COC(=O)C[C@H]1C(C)(C)C(=O)[C@@H]2CC3C4=CC(=O)O[C@@H](c5ccoc5)[C@]4(C)CCC3C1(C)C2=O (stereo partly specified)	> 4 mM (inactive)
Cc1ccc(C2NS(=O)(=O)N=C2N)cc1 (stereo unspecified)	> 4 mM (inactive)
O=c1c(O)c(-c2ccc(O)cc2O)oc2cc(O)cc(O)c12	> 4 mM (inactive)
CC(C)Nc1nc2n(c(=O)n1)CCN2C(C)C	> 4 mM (inactive)
N#CCSc1nc(-c2ccccc2)cs1	> 4 mM (inactive)
O=S(=O)(c1ccc(F)c(Cl)c1)N1CCCC1	> 4 mM (inactive)
CC(=O)NS(=O)(=O)c1ccc(C)cc1	> 4 mM (inactive)
O=c1c[n+]([O-])c2ccccc2n1OCc1ccccn1	> 4 mM (inactive)
N#Cc1sc2nc3c(c(-c4cccnc4)c2c1N)CCC3	> 4 mM (inactive)
Cc1nc2cc(Cl)ccc2n1CCO	> 4 mM (inactive)
COc1ccc(/C=C2/SC(N)=NC2=O)c(OC)c1	> 4 mM (inactive)
CC1(C)CN=C(Nc2nc3ccccc3s2)S1	> 4 mM (inactive)
O=C(CSc1ncnc2ccccc12)NCCCO	> 4 mM (inactive)
CCSc1nc2ccccc2[nH]1	> 4 mM (inactive)
O=C1CS/C(=N/N=C/c2cccs2)N1	> 4 mM (inactive)

Compound	Kd
COCc1cc(=O)oc2cc(N)ccc12	> 4 mM (inactive)
Nc1cccc(CC(=S)N2CCOCC2)c1	> 4 mM (inactive)
O=C1NC(=S)NC(=O)C1=Cc1ccccc1O	> 4 mM (inactive)
COc1c2ccoc2nc2c(OC)c(OCC(O)C(C)(C)O)ccc12 (stereo unspecified)	> 4 mM (inactive)
COc1ccc(C(N)=O)cc1NC(C)=O	> 4 mM (inactive)
CC(=O)Oc1cc(OC(C)=O)c2c(c1)O[C@H](c1ccc(OC(C)=O)c(OC(C)=O)c1)[C@H](OC(C)=O)C2	> 4 mM (inactive)
CCOc1cccc(C(=O)c2ccc(O)c(O)c2O)c1	> 4 mM (inactive)
C=C(C)C1Cc2c(ccc(C(=O)O)c2O)O1 (stereo unspecified)	> 4 mM (inactive)
CN1CCN(c2ncnc3nc[nH]c23)CC1	> 4 mM (inactive)
Cc1nc(-c2ccc(C(=O)N3CCOCC3)cc2)cs1	> 4 mM (inactive)
CCN=Cc1c(O)n(-c2ccccc2C)c(=O)[nH]c1=O	> 4 mM (inactive)
COCC(=O)/C=C1\Sc2ccccc2N1C	> 4 mM (inactive)
CC(=O)N=c1cccc(NC(C)=O)n1O	> 4 mM (inactive)
COc1ccc(C)cc1S(=O)(=O)NC1CCCC1	> 4 mM (inactive)
Cc1scc(C(=O)Nc2ccon2)c1-c1ccccc1	> 4 mM (inactive)
COc1cccc(-c2nc3ccc(O)cc3c(=O)o2)c1	> 4 mM (inactive)
Cc1ccc(C)n1/N=C1\NC(=O)CS1	> 4 mM (inactive)
CCC(=O)OC1[C@@H]2CC3=C4CC(=O)O[C@@H](c5ccoc5)[C@]4(C)CCC3C(C)(C2=O)[C@@H](CC(=O)OC)C1(C)C (stereo partly specified)	> 4 mM (inactive)
Cc1cc[n+](-c2nc([O-])sc2C=O)cc1	> 4 mM (inactive)
CC(=O)Oc1cc(-c2coc3cc(OC(C)=O)c(OC(C)=O)c(OC(C)=O)c3c2=O)cc(OC(C)=O)c1OC(C)=O	> 4 mM (inactive)
O=C1C2C3C=CC(C3)C2C(=O)N1CCCO (stereo unspecified)	> 4 mM (inactive)

Compound	Kd
O=C1NC(=O)C(=Cc2cccs2)C(=O)N1	> 4 mM (inactive)
Cn1c2c(c(=O)n(C)c1=O)CN(Cc1ccco1)CN2	> 4 mM (inactive)
Nc1ccn(C2O[C@H](CO)[C@@H](O)[C@H]2O)c(=O)n1 (stereo partly specified)	> 4 mM (inactive)
COc1ccc(/C=C2/C(=O)N=C(N)N2C)cc1OC	> 4 mM (inactive)
c1ccn(Cc2ccncc2)c1	> 4 mM (inactive)
CC(=O)O[C@H]1CC[C@@]2(C)C(CC[C@]3(C)C2CC=C2C4CC(C)(C)CC[C@]4(C)CC[C@]23C)C1(C)C (stereo partly specified)	> 4 mM (inactive)
Cc1ccc(-n2[nH]c(C)cc2=O)cc1	> 4 mM (inactive)
CN1CCC(N2CCOCC2)CC1	> 4 mM (inactive)
O=C1c2ccccc2C(=O)N1/N=C/c1ccc[nH]1	> 4 mM (inactive)
CSc1ccccc1NC(=O)c1ccco1	> 4 mM (inactive)
COC(=O)c1ccc(N2CCOCC2)nc1	> 4 mM (inactive)
NC(=O)c1cccc2c(=O)oc3ccccc3c12	> 4 mM (inactive)
OCCCc1nc2ccccc2[nH]1	> 4 mM (inactive)
COc1cc(-c2coc3cc(OC)c(OC)c(OC)c3c2=O)cc(OC)c1OC	> 4 mM (inactive)
CC(=O)Nc1sccc1C(=O)NC(N)=O	> 4 mM (inactive)
O=C(NCc1cccnc1)c1ccccn1	> 4 mM (inactive)
CC1(C)O[C@H]2[C@H](O)C[C@](O)(C(N)=O)C[C@H]2O1	> 4 mM (inactive)
Cc1cccc(N2C(=O)CCC2=O)n1	> 4 mM (inactive)
